Assay results from US11957680B2, “Pyruvate kinase activators for use in treating blood disorders” (Agios Pharmaceuticals, Inc., priority 2017, dated 2024).

Tests used:
[1] = biological target: T1, wild type PKR (Homo sapiens, UniProt P30613); assay: PKR (wild type) enzyme AC50 assay, LDH/NADH-coupled, absorbance at 340 nm; assay type: biochemical; conditions: for AC50: read-out: PKR WT AC50; for EC50: read-out: PKR WT
In short: (§1)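 Human PKR, wild type or K410E/R510Q mutant (40-400 ng/well), preincubated 60 min at room temperature with compound (11-point 3-fold series from 100 μM, 1% DMSO) in Tris pH 7.5/KCl/MgCl2 buffer with PEP 0.1-0.5 mM, 180 μM NADH, LDH. ADP (0.2-1.65 mM) started the reaction; LDH-coupled NADH consumption followed at 340 nm.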

[2] = biological target: PKR K410E (Homo sapiens, UniProt P30613, K410E); assay: PKR mutant assay (K410E), AC50, LDH/NADH-coupled, absorbance at 340 nm; assay type: biochemical; conditions: for AC50: Table 2, enzyme assay; for EC50: Table 4, AC50, enzyme assay
Chain of PKR K410E (P30613 whole entry K410E): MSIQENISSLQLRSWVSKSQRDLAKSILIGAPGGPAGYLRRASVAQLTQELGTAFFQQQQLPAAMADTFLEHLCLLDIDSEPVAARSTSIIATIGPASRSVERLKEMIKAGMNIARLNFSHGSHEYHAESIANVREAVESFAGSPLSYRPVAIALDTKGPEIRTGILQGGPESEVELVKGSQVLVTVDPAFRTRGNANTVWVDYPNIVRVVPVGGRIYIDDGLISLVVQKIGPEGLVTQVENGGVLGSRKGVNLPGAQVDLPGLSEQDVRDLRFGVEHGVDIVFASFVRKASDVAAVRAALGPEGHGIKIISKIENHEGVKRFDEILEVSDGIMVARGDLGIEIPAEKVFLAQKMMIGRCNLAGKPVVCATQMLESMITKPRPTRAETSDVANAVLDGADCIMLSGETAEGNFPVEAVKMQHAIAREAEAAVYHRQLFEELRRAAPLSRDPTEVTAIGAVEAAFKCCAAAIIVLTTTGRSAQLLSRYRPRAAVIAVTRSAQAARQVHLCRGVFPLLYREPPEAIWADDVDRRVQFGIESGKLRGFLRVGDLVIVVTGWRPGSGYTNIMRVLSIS
In short: as §1

[3] = biological target: PKR R510Q (Homo sapiens, UniProt P30613, R510Q); assay: PKR mutant assay (R510Q), AC50, LDH/NADH-coupled, absorbance at 340 nm; assay type: biochemical; conditions: for AC50 / PK R510Q AC50: Table 2, enzyme assay; for AC50: read-out: PK R510Q AC50; for EC50: read-out: PK R510Q
Chain of PKR R510Q (P30613 whole entry R510Q): as the sequence (P30613 whole entry K410E) above, with E410K, R510Q counted along it
In short: as §1

[4] = biological target: T1, wild type PKR; assay: Cell based ATP assay in purified red blood cells (Cell-Titer-Glo); parameters: endogenous in cells; host or cells: purified red blood cells from healthy volunteers; conditions: overnight at 37° C., ATP levels; for AC50 / Cell based ATP assay AC50: Table 2, RBCs; for EC50 / Cell based ATP assay: Table 4, AC50, RBCs
In short: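 RBCs from healthy human donors' K2EDTA blood were leukocyte-depleted by filtration and resuspended in AGAM (PBS, 1% glucose, adenine, mannitol). Cells at 1×10^7 cells/mL were incubated overnight at 37 °C with serially diluted compound at 0.1% DMSO, and ATP was read by Cell-Titer-Glo luminescence.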

T1 sequence (P30613 whole entry): as the sequence (P30613 whole entry K410E) above, with E410K counted along it

Row | Compound | AC50 ([1]; Table 2, enzyme assay) [nM] | AC50 [2] [nM] | AC50 [3] [nM] | AC50 [4] [nM] | EC50 ([1]; Table 4, AC50, enzyme assay) [nM] | EC50 [2] [nM] | EC50 ([3]; Table 4, AC50, enzyme assay) [nM] | also measured
1 | Cc1nc2c(s1)c1cnn(Cc3cc[nH]n3)c(=O)c1n2C [Compound 68] | < 300 | < 300 | < 300 | ≤ 1000 |  |  |  | 
2 | Cn1c2nc(Cc3ccon3)sc2c2cnn(Cc3cccc4[nH]ncc34)c(=O)c21 [Compound 166] | 301 to 800 | > 800 | 301 to 800 | > 1000 |  |  |  | 
3 | Cn1c2nc(Cc3cc[nH]n3)sc2c2cnn(Cc3cccc(C#N)c3)c(=O)c21 [Compound 182] | < 300 | < 300 | < 300 | ≤ 1000 |  |  |  | 
4 | Cc1nc2c(s1)c1cnn(CCO)c(=O)c1n2C [Compound 67] | > 800 | > 800 |  |  |  |  |  | PK R510Q AC50 [3]: No Fit; Cell based ATP assay AC50 [4]: No Fit
5 | Cn1c2nc(Cc3cccnc3)sc2c2cnn(Cc3cccc4[nH]ncc34)c(=O)c21 [Compound 164] | < 300 | < 300 | < 300 | ≤ 1000 |  |  |  | 
6 | CSc1nc2c(s1)c1cnn(Cc3cn4cccnc4n3)c(=O)c1n2C [Compound 107] |  | > 800 | > 800 |  |  |  |  | PKR WT AC50 ([1]; Table 2, enzyme assay): No Fit; Cell based ATP assay AC50 [4]: No Fit
7 | Cn1c2nc(Cc3cc[nH]n3)sc2c2cnn(Cc3cn4cccnc4n3)c(=O)c21 [Compound 213] |  |  |  |  | 301 to 800 | 301 to 800 | 301 to 800 | EC50 [4]: ≤ 1000 nM
8 | Cn1c2nc([S+](C)[O-])sc2c2cnn(Cc3csc(N)n3)c(=O)c21 (stereo not drawn) [Compound 83] | < 300 | < 300 | < 300 | ≤ 1000 |  |  |  | 
9 | COc1cccc(Cn2ncc3c4sc(OC)nc4n(C)c3c2=O)c1 [Compound 22] | < 300 | < 300 | < 300 | > 1000 |  |  |  | 
10 | Cn1c2nc(CC(N)=O)sc2c2cnn(Cc3cccc4[nH]ncc34)c(=O)c21 [Compound 137] | 301 to 800 | < 300 | < 300 | > 1000 |  |  |  | 
11 | Cn1c2nc(Cc3cc(C(F)(F)F)[nH]n3)sc2c2cnn(Cc3cccc4[nH]ncc34)c(=O)c21 [Compound 160] | 301 to 800 | 301 to 800 | 301 to 800 | ≤ 1000 |  |  |  | 
12 | Cn1c2nc(Cc3cc[nH]n3)sc2c2cnn(Cc3cccc4[nH]c(=O)[nH]c34)c(=O)c21 [Compound 252] |  |  |  |  | < 300 | < 300 | < 300 | EC50 [4]: ≤ 1000 nM
13 | Cn1c2nc(Cc3cc[nH]n3)sc2c2cnn(Cc3ccc4c(n3)NCC4)c(=O)c21 [Compound 384] |  |  |  |  | < 300 | < 300 | < 300 | EC50 [4]: ≤ 1000 nM
14 | Cn1c2nc(CCc3cc[nH]n3)sc2c2cnn(Cc3cccc(N)n3)c(=O)c21 [Compound 394] |  |  |  |  | < 300 | < 300 | < 300 | EC50 [4]: ≤ 1000 nM
15 | Cn1c2nc([S+](C)[O-])sc2c2cnn(Cc3cnc(N)nc3)c(=O)c21 (stereo not drawn) [Compound 94] | > 800 | > 800 |  | > 1000 |  |  |  | PK R510Q AC50 [3]: No Fit
16 | Cn1c2nc(C(O)c3ccccn3)sc2c2cnn(Cc3cccc4[nH]ncc34)c(=O)c21 (stereo not drawn) [Compound 130] | > 800 | > 800 | 301 to 800 | ≤ 1000 |  |  |  | 
17 | CS(=O)(=O)c1nc2c(s1)c1cnn(Cc3ccccc3)c(=O)c1n2-c1nccs1 [Compound 410] |  |  |  |  |  | > 800 |  | PKR WT ([1]; Table 4, AC50, enzyme assay): No Fit; PK R510Q ([3]; Table 4, AC50, enzyme assay): No Fit; EC50 [4]: > 1000 nM
18 | CC(O)c1cccc(Cn2ncc3c4sc([S+](C)[O-])nc4n(C)c3c2=O)c1 (stereo not drawn) [Compound 88] | < 300 | 301 to 800 | 301 to 800 | ≤ 1000 |  |  |  | 

Row | Compound | AC50 ([1]; Table 2, enzyme assay) [nM] | AC50 [2] [nM] | AC50 [3] [nM] | AC50 [4] [nM] | EC50 ([1]; Table 4, AC50, enzyme assay) [nM] | EC50 [2] [nM] | EC50 ([3]; Table 4, AC50, enzyme assay) [nM] | also measured
19 | CCn1c2nc(Cc3cc[nH]n3)sc2c2cnn(Cc3ccccc3)c(=O)c21 [Compound 402] |  |  |  |  | > 800 | > 800 | > 800 | Cell based ATP assay [4]: No Fit
20 | Cn1c2nc(Cc3cc[nH]n3)sc2c2cnn(Cc3ccc(C(N)=O)cc3)c(=O)c21 [Compound 176] | > 800 | > 800 | > 800 | > 1000 |  |  |  | 
21 | Cn1c2nc([C@H](O)c3cc[nH]n3)sc2c2cnn(Cc3cccc4[nH]ncc34)c(=O)c21 [Compound 305] |  |  |  |  | < 300 | < 300 | < 300 | EC50 [4]: ≤ 1000 nM
22 | COc1ncccc1Cc1nc2c(s1)c1cnn(Cc3cccc4[nH]ncc34)c(=O)c1n2C [Compound 219] |  |  |  |  | < 300 | < 300 | < 300 | EC50 [4]: ≤ 1000 nM
23 | COc1cccc(Cn2ncc3c4sc(CC5CCCCC5)nc4n(C)c3c2=O)c1 [Compound 50] | > 800 | > 800 | > 800 |  |  |  |  | Cell based ATP assay AC50 [4]: No Fit
24 | Cn1c2nc(Cc3cc[nH]n3)sc2c2cnn(Cc3cccc4[nH]cnc34)c(=O)c21 [Compound 278] |  |  |  |  | < 300 | < 300 | < 300 | EC50 [4]: ≤ 1000 nM
25 | Cn1c2nc(Cc3cc[nH]n3)sc2c2cnn(CC3CCCCC3)c(=O)c21 [Compound 397] |  |  |  |  | > 800 | > 800 | > 800 | Cell based ATP assay [4]: No Fit
26 | COc1cc(Cc2nc3c(s2)c2cnn(Cc4cccc5[nH]ncc45)c(=O)c2n3C)ccn1 [Compound 215] |  |  |  |  | < 300 | < 300 | < 300 | EC50 [4]: ≤ 1000 nM
27 | Cn1c2nc(Cc3cc[nH]n3)sc2c2cnn(CCc3cccnc3)c(=O)c21 [Compound 399] |  |  |  |  | > 800 | > 800 | > 800 | Cell based ATP assay [4]: No Fit
28 | Cn1c2nc(Cc3ccc4cn[nH]c4c3)sc2c2cnn(Cc3cccc4[nH]ncc34)c(=O)c21 [Compound 156] | 301 to 800 | < 300 | < 300 | ≤ 1000 |  |  |  | 
29 | Cn1c2nc(C(c3cccc4[nH]ncc34)S(=O)(=O)c3ccccc3)sc2c2cnn(Cc3cccc4[nH]ncc34)c(=O)c21 (stereo not drawn) [Compound 133] | > 800 | > 800 | > 800 | > 1000 |  |  |  | 
30 | COc1ncc(Cc2nc3c(s2)c2cnn(Cc4cccc5[nH]ncc45)c(=O)c2n3C)cn1 [Compound 207] |  |  |  |  | 301 to 800 | 301 to 800 | > 800 | EC50 [4]: ≤ 1000 nM
31 | COc1cccc(Cn2ncc3c4sc(Cc5ccc(C)cc5)nc4n(C)c3c2=O)c1 [Compound 32] | < 300 | < 300 | < 300 | ≤ 1000 |  |  |  | 
32 | Cn1c2nc(C(O)(C(N)=O)c3ccccc3)sc2c2cnn(Cc3cccc4[nH]ncc34)c(=O)c21 (stereo not drawn) [Compound 152] | 301 to 800 | < 300 | 301 to 800 | ≤ 1000 |  |  |  | 
33 | Cn1c2nc([S+](C)[O-])sc2c2cnn(Cc3cccc4c3CCN4)c(=O)c21 (stereo not drawn) [Compound 79] | < 300 | < 300 | < 300 | ≤ 1000 |  |  |  | 
34 | COc1cccc(Cn2ncc3c4sc(Cc5cc[nH]n5)nc4n(C)c3c2=O)c1 [Compound 144] | < 300 | < 300 | < 300 | ≤ 1000 |  |  |  | 
35 | CCOC(=O)c1scnc1Cc1nc2c(s1)c1cnn(Cc3cccc4[nH]ncc34)c(=O)c1n2C [Compound 165] | 301 to 800 | > 800 | 301 to 800 | ≤ 1000 |  |  |  | 
36 | CSc1nc2c(s1)c1cnn(Cc3cccc4sc(N)nc34)c(=O)c1n2C [Compound 114] | < 300 | < 300 | < 300 |  |  |  |  | Cell based ATP assay AC50 [4]: No Fit
